Reference: PMC7583046, “The Paralogue of the Intrinsically Disordered Nuclear Protein 1 Has a Nuclear Localization Sequence that Binds to Human Importin α3” (International Journal of Molecular Sciences, 2020)

How the values were obtained:
[1] = biological target: T1, human importin α3 (Impα3) (Homo sapiens, UniProt O00629); experiment: Isothermal titration calorimetry, binding to Impα3; conditions: Tris 50 mM pH 8, 298 K
T1 construct: Human importin α3 isoform (residues 1–521); His-tag (N); made in house; host or cells: E. coli BL21 (DE3)
T1 sequence (O00629 1-521): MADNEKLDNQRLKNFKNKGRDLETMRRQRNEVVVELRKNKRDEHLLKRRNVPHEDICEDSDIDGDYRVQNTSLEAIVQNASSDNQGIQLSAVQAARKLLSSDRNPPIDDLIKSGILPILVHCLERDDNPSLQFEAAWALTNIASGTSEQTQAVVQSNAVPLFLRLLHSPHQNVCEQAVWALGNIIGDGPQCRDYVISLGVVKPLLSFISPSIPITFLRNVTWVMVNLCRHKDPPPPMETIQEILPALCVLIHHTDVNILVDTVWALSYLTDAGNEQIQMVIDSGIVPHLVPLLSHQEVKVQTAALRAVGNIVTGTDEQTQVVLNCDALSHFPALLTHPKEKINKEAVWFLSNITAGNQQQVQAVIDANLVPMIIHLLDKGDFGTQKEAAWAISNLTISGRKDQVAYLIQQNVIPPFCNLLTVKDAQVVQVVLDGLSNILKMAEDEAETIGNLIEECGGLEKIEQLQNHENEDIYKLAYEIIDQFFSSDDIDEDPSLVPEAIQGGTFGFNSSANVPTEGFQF
Description: (§1) Figure 4 Binding of NLS-NUNPR1L to both importin species: (A) Titration curve monitoring the changes of Impα3 fluorescence at 340 nm in the presence of NLS-NUPR1L, after excitation at 280 nm. (B) Titration curve monitoring the changes of ∆Impα3 fluorescence at 340 nm in the presence of NLS-NUPR1L, after excitation at 280 nm. […] (C) Calorimetric binding isotherms (ligand normalized heat effect per injection as a function of the ligand/protein molar ratio) for the interaction of NLS-NUPR1L with Impα3 (left) and ∆Impα3 (right) are shown, with the thermogram (raw thermal power data as a function of time) at the top of each panel. Binding parameters were estimated by non-linear least squares regression data analysis of the interaction isotherms applying a single ligand binding site model implemented in Origin 7.0. (OriginLab, Northampton, MA, USA).
(§2) The experimental set-up and data processing of ITC experiments have been described previously. […] The temperature for all experiments was 298 K. The experiments were analyzed applying a model considering a single ligand binding site (1:1 stoichiometry for the NLS-NUPR1L/Impα3 (or ∆Impα3) interaction) implemented in Origin 7.0 (OriginLab, Northampton, MA, USA).

[2] = biological target: T2, ∆Impα3 (Impα3 without IBB, residues 64-521) (Homo sapiens, UniProt O00629); experiment: Isothermal titration calorimetry, binding to ∆Impα3; conditions: Tris 50 mM pH 8, 298 K
T2 construct: codon-optimized, His-tagged ∆Impα3 (residues 64-521) were carried out using BL21 (DE3) cells; His-tag; made in house; host or cells: E. coli BL21 (DE3)
T2 sequence (O00629 64-521): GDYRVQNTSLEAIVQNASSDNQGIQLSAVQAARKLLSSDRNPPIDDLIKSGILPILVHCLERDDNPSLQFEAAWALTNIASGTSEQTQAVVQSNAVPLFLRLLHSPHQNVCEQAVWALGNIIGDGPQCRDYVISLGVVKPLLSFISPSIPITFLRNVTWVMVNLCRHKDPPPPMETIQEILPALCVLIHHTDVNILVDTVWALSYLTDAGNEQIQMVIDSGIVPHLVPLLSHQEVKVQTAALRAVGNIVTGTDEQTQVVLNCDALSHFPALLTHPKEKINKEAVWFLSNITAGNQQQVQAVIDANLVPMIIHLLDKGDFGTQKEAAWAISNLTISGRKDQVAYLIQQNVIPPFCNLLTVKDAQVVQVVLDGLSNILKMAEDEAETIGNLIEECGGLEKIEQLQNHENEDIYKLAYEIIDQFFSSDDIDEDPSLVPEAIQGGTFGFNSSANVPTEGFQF
Description: as §1, §2

[3] = system: ∆Impα3; conditions: 50 mM phosphate pH 7.0, 298 K; NUPR1L 15 μM with importin 5 μM, or NLS-NUPR1L 10 μM with importin 4 μM
Procedure: (§3) Fluorescence spectra were collected on a Cary Varian spectrofluorometer (Agilent, Santa Clara, CA, USA), interfaced with a Peltier unit. All experiments were carried out at 298 K. Following the standard protocols used in our laboratories, the samples were prepared the day before and left overnight at 278 K; before experiments, samples were left for 1 h at 298 K. A 1 cm pathlength quartz cell (Hellma, Kruibeke, Belgium) was used. The concentration of NLS-NUPR1L was 10 μM and those of both importins were 4 μM. Samples containing the isolated peptide, the isolated importin species, and a mixture of both (at those indicated concentrations) were prepared. Experiments were acquired in 50 mM phosphate buffer (pH 7.0). For the experiments with intact NUPR1L, a concentration of 15 μM (in protomer units) was used and that of each importin was 5 μM.
(§4) Protein samples were excited either at 280 or 295 nm. The other experimental parameters and the buffers used have been described elsewhere. […]
(§5) Far-UV CD spectra were collected on a Jasco J810 spectropolarimeter (Jasco, Tokyo, Japan) with a thermostated cell holder, and interfaced with a Peltier unit at 298 K. The instrument was periodically calibrated with (+)-10-camphorsulphonic acid. […] The concentration of each polypeptide (importin species and either NLS-NUPR1L or intact NUPR1L) was the same as that used in the fluorescence experiments (Section 4.4). […]

[4] = system: Impα3; conditions: 50 mM phosphate pH 7.0, 298 K; NLS-NUPR1L 10 μM, importin 4 μM
Procedure: as §3, §4, §5

## Ac-RTRREQALRTNWPAPGGHERKVAQ-NH2 [NLS-NUPR1L]
[1]
  n, stoichiometry (ITC), Impα3: 1.04 ± 0.05
  ∆H (ITC), Impα3: -3.1 ± 0.5 kcal/mol
[2]
  n, stoichiometry (ITC), ∆Impα3: 0.75 ± 0.06
  ∆H (ITC), ∆Impα3: -2.4 ± 0.5 kcal/mol
[3]
  spectral changes upon binding to ∆Impα3 (fluorescence and/or far-UV CD): there were changes in the spectra upon addition of NLS-NUPR1L to each of the importin species
[4]
  spectral changes upon binding to Impα3 (fluorescence and CD): there were changes in the spectra upon addition of NLS-NUPR1L to each of the importin species
